The subject of data set [1] is total (truncated + full length) C7 in RDEB_L1 cells. The data set is described as follows: AlphaLISA quantification of total C7 in RDEB_L1 cells. It counts as cell-based, human. As to conditions: for EC50: Homo sapiens. As for the experimental part:
(§1) The AlphaLISA assay was developed in-house by using the biotin-conjugated rabbit polyclonal antibody anti-C7 (LSBio LS-298147) and conjugating the acceptor beads (PerkinElmer 6772001) to a monoclonal anti-Collagen type VII antibody produced in mouse, clone LH7.2 (Thermo MA5-13,432). Formulation of the mAb clone LH7.2 was exchanged to PBS and concentrated 5 × by using Amicon® Ultra-0.5 centrifugal filters up to 1 mg/ml. The conjugation procedure was carried out according to the protocol provided by PerkinElmer.
(§2) For compound treatment in RDEB patient-derived transformed keratinocytes, 5,000 cells were plated in 20 µL of supplemented KGM media containing 20 ng/mL TGFβ2 (SIGMA GF113) without GA-1000 in 384-well cell culture plates (Greiner 781098). The day after, 5 µL of test compounds prepared 5 × in supplemented KGM without GA-1000 were added over cells and incubated for 48 h at 37 °C and 5% CO2. For compound treatment in HEK293^R578X, 10,000 cells were plated in 20 μL of DMEM (High Glucose, 2 mM L-Glutamine, sodium pyruvate, and FBS 10%) in 384-well cell culture plates (Greiner 781,098,). The day after, 5 μL of test compounds prepared 5 × in DMEM complete medium were added over cells and incubated for 48 h at 37 °C and 5% CO2.
(§3) After the treatment process, 2.5 µL of RIPA buffer 10 x (Abcam ab156034) were added over the […] of cells for 20 min at room temperature to obtain a complete cell lysis. Then, 2 μL of sample (i.e., cell lysate with supernatant) were transferred to the AlphaLISA plate (PerkinElmer 6,059,340) containing […] of antibodies mixture ([…] of acceptor Beads-Ab and […] of biotin-rAb) prepared in AlphaLISA buffer 1 x (PerkinElmer AL00F). The reaction was incubated for 90 min at room temperature. Finally, 10 μL of […] of donor beads (PerkinElmer 6760002,) were added to the reaction under subdued light, mixed gently, and incubated for 3 h at room temperature. AlphaLISA signal was detected with an Envision microplate reader (Perkin Elmer) using the following setting: Filter: AlphaScreen, Excitation time: 180 ms, Integration time: 300 ms.
(§4) Statistical analyses were performed using GraphPad Prism v. 7.04 (La Jolla, California). Results are shown as mean ± SD of experimental replicates. Dose–response curves to assess compound treatment effect were plotted in a four-parameter logistic model. Relative EC50, representing the total drug concentration producing a 50% effect, was calculated in the four-parameter logistic equation. Comparisons of collagen protein and mRNA expression in different experimental conditions were made using ANOVA, followed by a post hoc test. statistical significance was considered with p values < 0.05.
Background: Bead proximity is the source of the signal in Alpha formats.

The test system of data set [2] is total (truncated + full length) C7 in RDEB_L5 cells. The data set can be described thus: AlphaLISA quantification of total C7 in RDEB_L5 cells. It counts as cell-based, human. As to conditions: for EC50: Homo sapiens, total C7 AlphaLISA, 48 h, 20 ng/mL TGFß2, relative EC50, mean ± SD, read-out: Increase in C7 levels EC50; for Increase in C7 levels Emax, % vs baseline: 20 ng/mL TGFß2. How it is done: as §1, §2, §3, §4

Data set [3] can be described thus: Cytotoxicity, ATP levels, normal human keratinocytes (NHK). It counts as cell-based. The settings on record: normal human keratinocytes (NHK). As for the experimental part:
The viability of RDEB patient-derived cell lines or NHK was evaluated by measuring the ATP levels as an indirect readout of the potential cytotoxicity effect of compounds. Cells were plated and treated exactly with the same conditions as those followed in the AlphaLISA assay, described above. To measure ATP levels, cells were processed using the ATPlite™ 1step luminescence-based assay (PerkinElmer 6,016,731), following the manufacturer’s protocol. 25 μL of ATPlite™ reagent was added directly over cells and plates were covered with a sealing film and shaken for 25 min using a microtiter plate shaker. Luminescence was measured in a Luminoskan Ascent luminometer (Thermo Fisher Scientific). 10 μM of Staurosporine was used as a reference compound and control for the total cytotoxicity.

Data set [4] relates to total C7 in HEK293^R578X cells. The data set is described as follows: AlphaLISA quantification of total C7 in recombinant HEK293^R578X cells. It counts as cell-based, human. The settings on record: for EC50: Homo sapiens, total C7 AlphaLISA, 48 h, relative EC50, mean ± SD, read-out: Increase in C7 levels EC50. How it is done: as §1, §2, §3, §4
Data set [5] has as its system MDH1 native stop codon readthrough in RDEB_L1 and RDEB_L5 cells. The data set can be described thus: Western blot of MDH1 native stop codon (NSC) readthrough selectivity. The settings on record: 48 h. It counts as cell-based, human. The source says: In the absence of a verified target or mechanism of action, a key aspect of phenotypic screening is to ensure that the phenotypic activity is sufficiently selective and has minimal or no interference in physiologically close cellular processes. In this context, the selectivity of readthrough compounds vs native stop codons (NSC) and normal codon–anticodon recognition is an important endpoint to verify the selectivity of hit compounds. For that purpose, we analyzed the translation products of MDH-1, a gene that has an alternative native stop codon that has been used as a surrogate of non-specific readthrough activity[42],[43]. […] For western blot, RDEB or normal human keratinocytes were lysed in protein extraction buffer (50 mM Tris–HCl [pH 7.5], 100 mM NaCl, 1% Nonidet P-40, and 4 mM EDTA) containing proteinase inhibitors cocktail (Complete Mini, EDTA free; Roche Diagnostics, Mannheim, Germany). Lysates were incubated for 30 min on ice and centrifuged at 15,000 g for 30 min at 4 °C. Supernatants were then collected and concentrated by ultrafiltration using Amicon Ultra columns (10 kDa; Millipore, Ireland). Protein concentrations were measured using the Bradford assay (Bio-Rad, Hercules, CA). […] A. Nystrom, University of Freiburg). Invitrogen anti-MDH1 polyclonal antibody (PA550446, 1:1000) was used to detect MDH1. […]
In general terms: In western blotting, separated proteins are transferred to a membrane and probed.

[6] abbreviates: RDEB_L1 cells, total C7 AlphaLISA, 48 h, 20 ng/mL TGFß2, mean ± SD, read-out: Increase in C7 levels EC50(rel).
Where [7] appears, read: human, NHK cells, ATP levels, read-out: Cytotox. IC50.

Read-outs that look alike come from different tables or passages of the source.

`NC(=O)Cn1ccc2ccc(-c3cnc(N)c(C(=O)NC4C5CC6CC4CC(O)(C6)C5)n3)cc21` (stereo not shown) [Compound 1]: the EC50 was 4.56 µM in data set [1] (RDEB_L1 cells, no gentamicin (Fig. 4b), read-out: EC50 of compound 1, total C7 AlphaLISA); 3 ± 1.8 µM in data set [1] (setting [6]); 4.7 ± 0.8 µM in data set [2]. In data set [1] (RDEB_L1 cells), the “decrease in the EC50 in the presence of increasing concentrations of gentamicin” value is “threefold”. For the same compound, the “Increase in C7 levels Emax, % vs baseline” value (“Increase … % vs baseline” for short) was determined as 3279 ± 1236 at 12 % vs baseline in data set [1] (RDEB_L1 cells, at 12 µM, 20 ng/mL TGFß2) and 1401 ± 384 at 12.5 % vs baseline in data set [2] (at 12.5 µM). Besides, in data set [1] (RDEB_L1 cells, both at concentrations in the range of their EC50, 48 h, 20 ng/mL TGFβ), the “effect of the combination with gentamicin on total C7 levels” value is given as “synergistic effect”. For the same compound, the IC50 in data set [3] (setting [7]) was 19 ± 2.4 µM.
Consider `C#Cc1cc(-c2ccncc2)c(-c2cccc(F)c2)nc1N` [Compound 7], for which the EC50 in data set [1] (setting [6]) was 17 ± 6.6 µM; in data set [1] (Table 5 SAR, C7 AlphaLISA, 20 ng/mL TGFß2 (cell line not given; compound 7 values equal RDEB_L1 of Table 1), read-out: Increase in C7 levels EC50 (rel)), 17 ± 6.6 µM; in data set [2] it was 23 ± 11 µM; in data set [4] it was 60 ± 4.6 µM. Besides, the “Increase … % vs baseline” value in data set [1] (RDEB_L1 cells, at 50 µM, 20 ng/mL TGFß2) was determined as 412 ± 80 at 50 % vs baseline; in data set [1] (Table 5 SAR, at 50 μM, 20 ng/mL TGFß2) it was 412 ± 80 at 50 % vs baseline; in data set [2] (at 50 µM), 293 ± 58 at 50 % vs baseline; in data set [4] (at 100 µM), 96 ± 35 at 100 % vs baseline. Further, the half-maximal inhibitory concentration (IC50) in data set [3] (read-out: cytotoxicity IC50) was greater than 100 µM. Besides, the “non-specific readthrough at MDH-1 native stop codon, western blot” value in data set [5] (two and threefold above its EC50 in RDEB_L5 and RDEB_L1 cells respectively) is on record as “did not induce non-specific readthrough above background levels”.
For the compound `CNC(C)C1CCC(N)C(OC2C(N)CC(N)C(OC3OCC(C)(O)C(NC)C3O)C2O)O1` (stereo not shown) [Gentamicin, reference compound], the concentration giving a half-maximal response (EC50) in data set [1] (setting [6]) is 1700 ± 480 µM; in data set [1] (in RDEB_L1 and RDEB_L5 cells, read-out: EC50 (range over two cell lines)) it was 420 to 1700 µM; in data set [2], 420 ± 390 µM; in data set [4] it was 4500 ± 2900 µM. In addition, the “concentrations at which activity was detectable in the AlphaLISA assay” value in data set [1] (RDEB_L1 and L5 cells) is given as greater than 100 µM. Moreover, the “Increase … % vs baseline” value in data set [1] (RDEB_L1 cells, 20 ng/mL TGFß2) turned out to be 199 ± 112 at 4100 % vs baseline; in data set [2] (at 1600 µM) it was 41 ± 3.3 at 1600 % vs baseline; in data set [4] (at 4100 µM), 89 ± 17 at 4100 % vs baseline. For the same compound, the IC50 in data set [3] (setting [7]) was determined as 1600 ± 280 µM. In addition, the “non-specific readthrough at MDH-1 native stop codon, western blot” value in data set [5] (twofold above its EC50 in RDEB_L1) is recorded as “inducing detectable non-specific readthrough”.

One may read the EC50 as the concentration giving half of the maximal effect. Usually IC50 stands for the concentration at which inhibition is half-maximal.

(Values after publication PMC11329504, “Identification of novel small molecule-based strategies of COL7A1 upregulation and readthrough activity for the treatment of recessive dystrophic epidermolysis bullosa” (Scientific Reports, 2024).)
